Measurements published in patent US11180474B2 (BRISTOL-MYERS SQUIBB COMPANY, priority 2016, dated 2021).

Assays:
human TLR7 = biological target: T1, human TLR7 (Homo sapiens, UniProt Q9NYK1); assay: TLR7 inhibition reporter assay (HEK-Blue cells, SEAP reporter, gardiquimod stimulation); assay type: cell-based; settings: HEK-Blue cells overexpressing human TLR7, gardiquimod 7.5 μM
T1 construct: host or cells: HEK-Blue cells
T1 sequence (Q9NYK1 27-1049): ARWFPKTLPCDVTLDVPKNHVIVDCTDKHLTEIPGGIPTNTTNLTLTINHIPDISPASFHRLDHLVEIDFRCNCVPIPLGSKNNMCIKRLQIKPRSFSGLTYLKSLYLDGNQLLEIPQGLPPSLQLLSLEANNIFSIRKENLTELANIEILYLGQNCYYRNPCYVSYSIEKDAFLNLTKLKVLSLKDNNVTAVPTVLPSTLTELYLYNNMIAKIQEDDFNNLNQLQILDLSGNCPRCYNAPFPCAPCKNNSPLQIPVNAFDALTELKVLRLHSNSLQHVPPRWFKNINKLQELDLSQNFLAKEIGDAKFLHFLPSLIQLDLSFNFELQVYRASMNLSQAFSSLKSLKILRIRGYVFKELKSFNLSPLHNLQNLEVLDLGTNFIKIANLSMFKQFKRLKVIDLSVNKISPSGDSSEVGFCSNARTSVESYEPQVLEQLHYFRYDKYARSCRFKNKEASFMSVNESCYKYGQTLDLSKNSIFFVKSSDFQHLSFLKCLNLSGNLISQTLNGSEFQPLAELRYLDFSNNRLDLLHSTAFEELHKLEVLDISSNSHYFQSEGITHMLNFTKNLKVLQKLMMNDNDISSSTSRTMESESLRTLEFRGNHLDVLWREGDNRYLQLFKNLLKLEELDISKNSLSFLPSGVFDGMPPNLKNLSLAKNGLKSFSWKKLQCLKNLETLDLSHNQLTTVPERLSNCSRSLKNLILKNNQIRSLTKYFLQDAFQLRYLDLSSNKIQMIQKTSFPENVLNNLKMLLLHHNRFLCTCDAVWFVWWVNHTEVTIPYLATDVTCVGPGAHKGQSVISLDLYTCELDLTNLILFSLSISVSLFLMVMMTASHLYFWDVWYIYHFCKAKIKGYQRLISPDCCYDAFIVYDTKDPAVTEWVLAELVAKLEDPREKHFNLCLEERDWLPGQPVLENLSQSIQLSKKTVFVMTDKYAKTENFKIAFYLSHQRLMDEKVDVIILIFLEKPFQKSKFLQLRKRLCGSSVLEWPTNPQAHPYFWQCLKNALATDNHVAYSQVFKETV
In short: (§1)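 Dose-response testing from 0.05 nM to 50 μM final was done on reporter cells for 22 hours at 37° C. Secreted SEAP was then detected, and inhibition was calculated as percent reduction of the agonist-plus-DMSO signal compared with wells given a known inhibitor.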

human TLR8 = biological target: T2, human TLR8 (Homo sapiens, UniProt Q9NR97); assay: TLR8 inhibition reporter assay (HEK-Blue cells, SEAP reporter, R848 stimulation); assay type: cell-based; settings: HEK-Blue cells overexpressing human TLR8, R848 15.9 μM
T2 construct: host or cells: HEK-Blue cells
T2 sequence (Q9NR97 27-1041): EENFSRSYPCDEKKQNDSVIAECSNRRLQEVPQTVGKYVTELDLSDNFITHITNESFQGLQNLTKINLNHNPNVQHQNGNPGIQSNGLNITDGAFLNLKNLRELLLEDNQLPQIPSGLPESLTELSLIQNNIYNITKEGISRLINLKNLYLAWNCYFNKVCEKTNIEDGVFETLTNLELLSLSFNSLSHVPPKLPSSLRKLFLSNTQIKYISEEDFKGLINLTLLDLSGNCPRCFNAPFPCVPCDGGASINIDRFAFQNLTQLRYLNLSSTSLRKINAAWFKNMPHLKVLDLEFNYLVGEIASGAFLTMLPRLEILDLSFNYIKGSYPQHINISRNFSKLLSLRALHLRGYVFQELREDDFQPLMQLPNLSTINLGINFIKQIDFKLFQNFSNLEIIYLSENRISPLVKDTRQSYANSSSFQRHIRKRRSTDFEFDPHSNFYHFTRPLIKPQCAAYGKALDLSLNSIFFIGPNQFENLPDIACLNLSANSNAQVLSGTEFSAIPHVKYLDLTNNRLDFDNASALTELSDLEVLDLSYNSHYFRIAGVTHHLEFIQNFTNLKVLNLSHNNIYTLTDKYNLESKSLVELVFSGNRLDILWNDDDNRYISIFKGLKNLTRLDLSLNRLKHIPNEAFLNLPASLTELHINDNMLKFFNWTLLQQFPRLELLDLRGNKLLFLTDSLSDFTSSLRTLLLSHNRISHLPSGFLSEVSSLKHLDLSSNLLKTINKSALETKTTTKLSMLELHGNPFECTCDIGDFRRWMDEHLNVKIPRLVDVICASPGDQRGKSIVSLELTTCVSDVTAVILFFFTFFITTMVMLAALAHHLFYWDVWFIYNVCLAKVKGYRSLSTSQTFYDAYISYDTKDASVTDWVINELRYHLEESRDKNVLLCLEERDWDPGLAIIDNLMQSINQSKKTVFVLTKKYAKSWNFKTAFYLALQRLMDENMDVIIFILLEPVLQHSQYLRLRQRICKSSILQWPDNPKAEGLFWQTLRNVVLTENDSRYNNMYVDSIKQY
In short: as §1

| Structure (SMILES) | IC50 (human TLR7) [µM] | IC50 (human TLR8) [µM] |
| --- | --- | --- |
| COc1ccc(-c2[nH]c3ccc(C4CCN(C(=O)CN5CCC[C@@H](C(=O)N6CCN(CCN7CCCC7)CC6)C5)CC4)cc3c2C(C)C)cc1OC [Example 307, (R)-1-(4-(2-(3,4-dimethoxyphenyl)-3-isopropyl-1H-indol-5-yl)piperidin-1-yl)-2-(3-(4-(2-(pyrrolidin-1-yl)ethyl)piperazine-1-carbonyl)piperidin-1-yl)ethan-1-one] | 0.052 | 0.038 |
| COc1ccc(-c2[nH]c3ccc(C4CCN(C(=O)CN5CCC[C@@H](C(=O)NCC#N)C5)CC4)cc3c2C(C)C)cc1OC [Example 308, (R)—N-(cyanomethyl)-1-(2-(4-(2-(3,4-dimethoxyphenyl)-3-isopropyl-1H-indol-5-yl)piperidin-1-yl)-2-oxoethyl)piperidine-3-carboxamide] | 0.037 | 0.041 |
| COc1ccc(-c2[nH]c3ccc(C4CCN(C(=O)CN5CCC[C@@H](C(=O)NCC(N)=O)C5)CC4)cc3c2C(C)C)cc1OC [Example 309, (R)—N-(2-amino-2-oxoethyl)-1-(2-(4-(2-(3,4-dimethoxyphenyl)-3-isopropyl-1H-indol-5-yl)piperidin-1-yl)-2-oxoethyl)piperidine-3-carboxamide] | 0.031 | 0.059 |
| COc1ccc(-c2[nH]c3ccc(C4CCN(C(=O)CN5CCC[C@@H](C(=O)N6CC7CNCC7C6)C5)CC4)cc3c2C(C)C)cc1OC (stereo partly drawn) [Example 310, 1-(4-(2-(3,4-dimethoxyphenyl)-3-isopropyl-1H-indol-5-yl)piperidin-1-yl)-2-((3R)-3-(octahydropyrrolo[3,4-c]pyrrole-2-carbonyl)piperidin-1-yl) ethan-1-one] | 0.29 | 0.488 |

Now from value to compound:

| IC50 (human TLR7) [µM] | IC50 (human TLR8) [µM] | Structure (SMILES) |
| --- | --- | --- |
| 0.148 | 0.06 | COc1ccc(-c2[nH]c3ccc(C4CCN(C(=O)CN5CCC[C@@H](C(=O)N6C(C)CCC6C)C5)CC4)cc3c2C(C)C)cc1OC (stereo partly drawn) [Example 311, 1-(4-(2-(3,4-dimethoxyphenyl)-3-isopropyl-1H-indol-5-yl)piperidin-1-yl)-2-((3R)-3-(2,5-dimethylpyrrolidine-1-carbonyl)piperidin-1-yl)ethan-1-one] |
| 0.008 | 0.028 | COc1ccc(-c2[nH]c3ccc(C4CCN(CC(=O)N(C)C)CC4)cc3c2C(C)C)cc1OC [Example 312, 2-(4-(2-(3,4-dimethoxyphenyl)-3-isopropyl-11H-indol-5-yl)piperidin-1-yl)-N,N-dimethylacetamide] |
| 0.073 | 0.496 | COc1ccc(-c2[nH]c3ccc(C4CCN(C(=O)CO)CC4)cc3c2C(C)C)cc1OC [Example 313, 1-(4-(2-(3,4-dimethoxyphenyl)-3-isopropyl-1H-indol-5-yl)piperidin-1-yl)-2-hydroxyethanone] |
| 0.284 | 0.657 | COc1ccc(-c2[nH]c3ccc(C4CCN(C(=O)COC(C)C)CC4)cc3c2C(C)C)cc1OC [Example 314, 1-(4-(2-(3,4-dimethoxyphenyl)-3-isopropyl-1H-indol-5-yl)piperidin-1-yl)-2-isopropoxyethan-1-one] |
